These results are taken from patent publication US20220089575A1, “FARNESOID X RECEPTOR AGONISTS AND USES THEREOF” (Metacrine, Inc., priority 2017, published 2022).

The term EC50 denotes the concentration at which the effect is half-maximal. A low value points to an effect from little substance.

SMILES strings stand for the structures.

For the experiment, the target named is T1, hFXR (Homo sapiens, UniProt Q96RI1).
T1 construct: expressed in transfected cells; host or cells: CV-1 cells
T1 sequence (Q96RI1 1-486): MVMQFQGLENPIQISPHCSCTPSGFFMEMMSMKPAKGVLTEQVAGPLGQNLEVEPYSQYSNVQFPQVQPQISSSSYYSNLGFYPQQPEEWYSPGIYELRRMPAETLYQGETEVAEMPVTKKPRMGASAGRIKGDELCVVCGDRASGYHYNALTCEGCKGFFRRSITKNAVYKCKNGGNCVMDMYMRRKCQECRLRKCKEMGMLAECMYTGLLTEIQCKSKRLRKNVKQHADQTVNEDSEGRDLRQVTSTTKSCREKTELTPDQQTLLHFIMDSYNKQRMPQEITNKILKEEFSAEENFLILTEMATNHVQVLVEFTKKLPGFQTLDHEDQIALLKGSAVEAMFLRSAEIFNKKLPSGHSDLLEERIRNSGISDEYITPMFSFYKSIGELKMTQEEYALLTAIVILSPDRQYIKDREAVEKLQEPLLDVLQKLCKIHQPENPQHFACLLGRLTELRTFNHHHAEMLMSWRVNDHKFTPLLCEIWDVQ
T1 sequence (P19793 1-462 partner): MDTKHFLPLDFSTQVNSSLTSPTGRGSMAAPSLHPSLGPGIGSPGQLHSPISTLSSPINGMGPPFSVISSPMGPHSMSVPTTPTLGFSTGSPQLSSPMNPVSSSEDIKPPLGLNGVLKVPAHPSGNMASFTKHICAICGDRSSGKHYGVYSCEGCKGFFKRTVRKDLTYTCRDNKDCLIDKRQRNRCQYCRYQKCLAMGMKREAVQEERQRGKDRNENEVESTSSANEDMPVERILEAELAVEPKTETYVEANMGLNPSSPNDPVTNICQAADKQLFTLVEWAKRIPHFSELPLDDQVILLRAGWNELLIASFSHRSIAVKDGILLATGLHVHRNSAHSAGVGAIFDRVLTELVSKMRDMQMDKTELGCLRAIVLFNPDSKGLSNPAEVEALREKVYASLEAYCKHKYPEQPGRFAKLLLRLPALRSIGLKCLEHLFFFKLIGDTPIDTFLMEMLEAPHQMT
Nature of the experiment: In Vitro FXR Assay (TK): TK-ECRE-luc reporter in transfected CV-1 cells. Type of experiment: cell-based. As to conditions: 18 hrs, luminescence, maximum efficacy of <25% of the Fexarmine control classified as '+'. The procedure, abridged: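 CV-1 cells transiently co-transfected with hFXR, hRXR, TK-ECRE-luc and pCMX-YFP plasmids in charcoal-stripped serum medium. Serially diluted compounds added, cells incubated 18 h at 37° C, then lysed and luminescence read.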
Turning to `CN(C)c1ccc([C@H]2CC[C@H](CN(c3cccc(-c4cnn(C5CC5)c4)c3)C(=O)[C@H]3CC[C@H](CC(=O)O)CC3)CC2)cn1` [Compound 20.12, 2-(trans-4-((3-(1-Cyclopropyl-1H-pyrazol-4-yl)phenyl)((trans-4-(6-(dimethylamino)pyridin-3-yl)cyclohexyl)methyl)carbamoyl)cyclohexyl)acetic acid], the EC50 was at most 250 nM. Turning to `COc1ccc([C@H]2CC[C@H](CN(c3cccc(-c4cnn(C(C)C)c4)c3)C(=O)[C@H]3CC[C@H](CC(=O)O)CC3)CC2)nc1C` [Compound 20.13, 2-(trans-4-((3-(1-Isopropyl-1H-pyrazol-4-yl)phenyl)((trans-4-(5-methoxy-6-methylpyridin-2-yl)cyclohexyl)methyl)carbamoyl)cyclohexyl)acetic acid], the EC50 is at most 250 nM.

In turn, `COc1ccc([C@H]2CC[C@H](CN(c3cccc(-c4cnn(C(C)C)c4)c3)C(=O)[C@H]3CC[C@H](CC(=O)O)CC3)CC2)cc1C` [Compound 20.14, 2-(trans-4-((3-(1-Isopropyl-1H-pyrazol-4-yl)phenyl)((trans-4-(4-methoxy-3-methylphenyl)cyclohexyl)methyl)carbamoyl)cyclohexyl)acetic acid] showed an EC50 of at most 250 nM. Under `COc1ccc([C@H]2CC[C@H](CN(c3cc(-c4cnn(C(C)C)c4)ccn3)C(=O)[C@H]3CC[C@H](CC(=O)O)CC3)CC2)cc1C` [Compound 20.15, 2-(trans-4-((4-(1-Isopropyl-1H-pyrazol-4-yl)pyridin-2-yl)((trans-4-(4-methoxy-3-methylphenyl)cyclohexyl)methyl)carbamoyl)cyclohexyl)acetic acid] stands at most 250 nM; under `COc1ccc([C@H]2CC[C@H](CN(c3cccc(-c4cnn(C(C)C)c4)c3)C(=O)[C@H]3CC[C@H](CCC(=O)O)CC3)CC2)cc1C` [Compound 20.16, 3-(trans-4-((3-(1-Isopropyl-1H-pyrazol-4-yl)phenyl)((trans-4-(4-methoxy-3-methylphenyl)cyclohexyl)methyl)carbamoyl)cyclohexyl)propanoic acid], at most 250 nM. Under `COc1ccc(C23CCC(CN(c4cc(-c5coc(C6CC6)n5)ccn4)C(=O)[C@H]4CC[C@H](CC(=O)O)CC4)(CC2)CC3)cc1C` [Compound 21, trans-2-(4-((4-(2-Cyclopropyloxazol-4-yl)pyridin-2-yl)((4-(4-methoxy-3-methylphenyl)bicyclo[2.2.2]octan-1-yl)methyl)carbamoyl)cyclohexyl) acetic acid] stands at most 250 nM; under `COc1ccc([C@H]2CC[C@H](CN(c3cc(-c4coc(C5CC5)n4)ccn3)C(=O)[C@H]3CC[C@H](CC(=O)O)CC3)CC2)cc1C` [Compound 21.01, 2-(trans-4-((4-(2-Cyclopropyloxazol-4-yl)pyridin-2-yl)((trans-4-(4-methoxy-3-methylphenyl)cyclohexyl)methyl)carbamoyl)cyclohexyl)acetic acid], at most 250 nM; under `COc1ccc([C@H]2CC[C@H](CN(c3cccc(-c4coc(C5CC5)n4)c3)C(=O)[C@H]3CC[C@H](CC(=O)O)CC3)CC2)cc1C` [Compound 21.02, 2-(trans-4-((3-(2-Cyclopropyloxazol-4-yl)phenyl)((trans-4-(4-methoxy-3-methylphenyl)cyclohexyl)methyl)carbamoyl)cyclohexyl)acetic acid], at most 250 nM.

`COc1ccc([C@H]2CC[C@H](CN(c3cccc(-c4coc(C5CC5)n4)c3)C(=O)[C@H]3CC[C@H](CC(=O)O)CC3)CC2)nc1C` [Compound 21.03, 2-(trans-4-((3-(2-Cyclopropyloxazol-4-yl)phenyl)((trans-4-(5-methoxy-6-methylpyridin-2-yl)cyclohexyl)methyl)carbamoyl)cyclohexyl) acetic acid] registered a 50% effective concentration (EC50) of at most 250 nM.

As for `COc1ccc([C@H]2CC[C@@H](CN(c3cccc(-c4coc(C5CC5)n4)c3)C(=O)[C@H]3CC[C@H](CC(=O)O)CC3)CC2)nc1C` [Compound 21.04, 2-(trans-4-((3-(2-Cyclopropyloxazol-4-yl)phenyl)((cis-4-(5-methoxy-6-methylpyridin-2-yl)cyclohexyl)methyl)carbamoyl)cyclohexyl) acetic acid], the EC50 was at least 1000 nM.

`COc1ccc([C@H]2CC[C@H](CN(c3cccc(-c4coc(C5CC5)n4)c3)C(=O)[C@H]3CC[C@H](CC(=O)O)CC3)CC2)cc1C#N` [Compound 21.05, 2-(trans-4-(((trans-4-(3-Cyano-4-methoxyphenyl)cyclohexyl)methyl)(3-(2-cyclopropyloxazol-4-yl)phenyl)carbamoyl)cyclohexyl)acetic acid] came in with an EC50 of at most 250 nM.

For `CN(C)c1ccc([C@H]2CC[C@H](CN(c3cccc(-c4coc(C5CC5)n4)c3)C(=O)[C@H]3CC[C@H](CC(=O)O)CC3)CC2)cn1` [Compound 21.06, 2-(trans-4-((3-(2-Cyclopropyloxazol-4-yl)phenyl)((trans-4-(6-(dimethylamino)pyridin-3-yl)cyclohexyl)methyl)carbamoyl)cyclohexyl) acetic acid], the concentration giving a half-maximal response (EC50) is at most 250 nM. Under `COc1ccc([C@H]2CC[C@H](CN(c3cc(-c4coc(C5CC5)n4)ccn3)C(=O)[C@H]3CC[C@H](CC(=O)O)CC3)CC2)nc1C` [Compound 21.07, 2-(trans-4-((4-(2-Cyclopropyloxazol-4-yl)pyridin-2-yl)((trans-4-(5-methoxy-6-methylpyridin-2-yl)cyclohexyl)methyl)carbamoyl)cyclohexyl) acetic acid] stands at most 250 nM; under `COc1ccc([C@H]2CC[C@H](CN(c3cccc(-c4coc(C(C)C)n4)c3)C(=O)[C@H]3CC[C@H](CC(=O)O)CC3)CC2)cc1C` [Compound 21.08, 2-(trans-4-((3-(2-lsopropyloxazol-4-yl)phenyl)((trans-4-(4-methoxy-3-methylphenyl)cyclohexyl)methyl)carbamoyl)cyclohexyl)acetic acid], at most 250 nM. Under `COc1ccc([C@H]2CC[C@H](CN(c3cc(-c4coc(C(C)C)n4)ccn3)C(=O)[C@H]3CC[C@H](CC(=O)O)CC3)CC2)cc1C` [Compound 21.09, 2-(trans-4-((4-(2-Isopropyloxazol-4-yl)pyridin-2-yl)((trans-4-(4-methoxy-3-methylphenyl)cyclohexyl)methyl)carbamoyl)cyclohexyl)acetic acid] stands at most 250 nM; under `COc1ccc([C@H]2CC[C@H](CN(c3cccc(-c4coc(C(C)C)n4)c3)C(=O)[C@H]3CC[C@H](CC(=O)O)CC3)CC2)cc1C#N` [Compound 21.10, 2-(trans-4-(((trans-4-(3-Cyano-4-methoxyphenyl)cyclohexyl)methyl)(3-(2-isopropyloxazol-4-yl)phenyl)carbamoyl)cyclohexyl)acetic acid], at most 250 nM.

Compound `COc1ccc([C@H]2CC[C@H](CN(c3cc(-c4coc(C(C)C)n4)ccn3)C(=O)[C@H]3CC[C@H](CC(=O)O)CC3)CC2)cc1C#N` [Compound 21.11, 2-(trans-4-(((trans-4-(3-Cyano-4-methoxyphenyl)cyclohexyl)methyl)(4-(2-isopropyloxazol-4-yl)pyridin-2-yl)carbamoyl)cyclohexyl)acetic acid] gave an EC50 of at most 250 nM. Under `COc1ccc([C@H]2CC[C@H](CN(c3cc(-c4coc(C5CC5)n4)ccn3)C(=O)[C@H]3CC[C@H](CC(=O)O)CC3)CC2)cc1C#N` [Compound 21.12, 2-(trans-4-(((trans-4-(3-Cyano-4-methoxyphenyl)cyclohexyl)methyl)(4-(2-cyclopropyloxazol-4-yl)pyridin-2-yl)carbamoyl)cyclohexyl)acetic acid] stands at most 250 nM; under `COc1ccc([C@H]2CC[C@H](CN(c3cccc(-c4coc(C5CC5)n4)c3)C(=O)[C@H]3CC[C@H](CC(=O)O)CC3)CC2)nc1C#N` [Compound 21.13, 2-(trans-4-(((trans-4-(6-Cyano-5-methoxypyridin-2-yl)cyclohexyl)methyl)(3-(2-cyclopropyloxazol-4-yl)phenyl)carbamoyl)cyclohexyl)acetic acid], at most 250 nM. In the case of `CCCOC(=O)[C@H]1CC[C@H](C(=O)N(C[C@H]2CC[C@H](c3ccc(OC)c(C)c3)CC2)c2cccc(-c3cnn(C4CC4)c3)c2)CC1` [Compound 22, trans-Propyl 4-((3-(1-cyclopropyl-1H-pyrazol-4-yl)phenyl)((trans-4-(4-methoxy-3-methylphenyl)cyclohexyl)methyl)carbamoyl)cyclohexanecarboxylate] it was at most 250 nM.
